Reference: US20080182898A1, “Treatment of metabolic syndrome with norfluoxetine” (AMPLA Pharmaceuticals Inc., priority 2007, published 2008)

Molecular target: CB1 receptor (Homo sapiens, UniProt P21554)
Test: functional activity versus the CB1 receptor
Settings: qualitative statement, no method or numbers given

Chain of CB1 receptor (P21554 whole entry): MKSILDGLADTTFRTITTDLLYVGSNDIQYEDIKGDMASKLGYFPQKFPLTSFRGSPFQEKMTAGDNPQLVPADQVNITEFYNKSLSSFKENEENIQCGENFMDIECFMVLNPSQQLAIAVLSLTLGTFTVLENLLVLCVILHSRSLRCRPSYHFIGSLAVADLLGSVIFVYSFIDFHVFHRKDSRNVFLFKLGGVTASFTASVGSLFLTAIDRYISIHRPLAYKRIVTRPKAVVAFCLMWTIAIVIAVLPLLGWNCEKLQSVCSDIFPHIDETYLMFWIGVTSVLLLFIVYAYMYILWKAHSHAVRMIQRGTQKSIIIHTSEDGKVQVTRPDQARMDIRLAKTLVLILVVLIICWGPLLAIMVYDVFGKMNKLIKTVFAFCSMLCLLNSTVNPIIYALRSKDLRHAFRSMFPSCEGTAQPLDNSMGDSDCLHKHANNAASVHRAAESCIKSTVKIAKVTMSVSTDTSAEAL

Structure (SMILES)	functional activity versus the CB1 receptor (mode of action)
NCCC(Oc1ccc(C(F)(F)F)cc1)c1ccccc1 (racemic) [racemate of norfluoxetine, 3-(4-trifluoromethylphenoxy)3-phenylpropylamine]	antagonist
CNCC[C@H](Oc1ccc(C(F)(F)F)cc1)c1ccccc1 [(S)-Fluoxetine]	inverse agonist
CNCC[C@@H](Oc1ccc(C(F)(F)F)cc1)c1ccccc1 [(R)-fluoxetine]	antagonist
